Data taken from the NIST ThermoML archive (doi:10.1016/j.jct.2005.03.003).
Numbers after ± are expanded uncertainties.

Tests used:
[1] = refractive index (Na D-line) (dimensionless); settings: 298.2 K; 101.33 kPa; Liquid; Standard Abbe refractometry
[2] = Liquid; for mass density: 298.2 K, 101.33 kPa

Structure (SMILES)	refractive index [1]	mass density [2]	Normal boiling temperature ([2]; Fischer boiling point apparatus:FP)	mass density ([2]; Vibrating tube method)	Normal boiling temperature ([2]; Fischer boiling point apparatus)
CC(=O)O [acetic acid]	1.3715 ± 0.0012	1049.44 ± 3 kg/m3	118.1 ± 0.2 °C	–	–
CCCCOC(=O)c1ccccc1C(=O)OCCCC [dibutyl phthalate]	1.4906 ± 0.0013	–	–	1050.13 ± 1.4 kg/m3	340.1 ± 0.2 °C
